# Measurements published in ChEMBL document CHEMBL1146426, “Isolation and characterization of new anti-HIV and cytotoxic leads from plants, marine, and microbial organisms” (J Nat Prod, 1997).
# Assays:
# [1] = tested on: Human immunodeficiency virus 1; assay: Antiviral activity against HIV1 infected in human CEM-SS cells assessed as inhibition of virus-induced cytopathic effect after 6 days by XTT-based assay; assay type: functional, organism-based; details: Human immunodeficiency virus 1, CEM-SS, 144 h
# [2] = tested on: CEM-SS; assay: Cytotoxicity against human CEM-SS cells after 6 days by XTT-based assay; assay type: cell-based; details: 144 h
# [3] = tested on: Human immunodeficiency virus 1; assay: Antiviral activity against HIV1 infected in human CEM-SS cells assessed as protection against viral infection after 6 days by XTT-based assay relative to control; assay type: functional
Compound,EC50 [1] [µg/mL],IC50 [2] [µg/mL],Activity [3] [%]
COc1ccc2c(c1CC=C(C)C)O[C@H]1c3ccc(O)cc3OC[C@@H]21 [SANDWICENSIN],2,7,50
COc1cc2c(cc1CC=C(C)C)[C@@H]1Oc3cc(O)ccc3[C@@H]1CO2,0.2,3,80
